Assay results: patent US6358978B1, “Substituted benzimidazoles” (Aventis Pharma Deutschland GmbH, priority 1999, dated 2002)
Structures can show the parent of a compound that is named as a salt.

How the values were obtained:
[1] = target: T1, cAMP-dependent protein kinase (PKA) (Homo sapiens, UniProt P17612); test: PKA kinase test (Upstate Biotechnology kit); type: biochemical; settings: substance concentration of 100 μM; ATP 50 μM
T1 construct: purchased Upstate Biotechnology
Description: (§1) cAMP-dependent protein kinase (PKA), protein kinase C (PKC), and casein kinase II (CK II) were determined using the appropriate test kits of Upstate Biotechnology according to the procedure of the manufacturer at an ATP concentration of 50 μM. Differently, no phosphocellulose filter, but MultiScreen plates (Millipore; phosphocellulose MS-PH, cat. MAPHNOB10) with the corresponding aspiration system were used. The plates or membranes (IκB kinase) were then measured in a Wallac Microβeta scintillation counter. 100 μM of the test substance were employed in each case.
(§2) Each substance was tested in a duplicate determination. The mean value of the blank (without enzyme) is subtracted from the mean values (enzyme with and without substances) and the % inhibition is calculated. IC50 calculations were carried out using the software package GraFit 3.0.

protein kinase C (PKC) = test: PKC kinase test (Upstate Biotechnology kit); type: biochemical; settings: substance concentration of 100 μM; ATP 50 μM
Description: as §1, §2

casein kinase II (CK II) = target: T2, casein kinase II (CK II) (Homo sapiens, UniProt P68400); test: CK II kinase test (Upstate Biotechnology kit); type: biochemical; settings: substance concentration of 100 μM; ATP 50 μM
T2 construct: purchased Upstate Biotechnology
T2 sequence (P68400 whole entry): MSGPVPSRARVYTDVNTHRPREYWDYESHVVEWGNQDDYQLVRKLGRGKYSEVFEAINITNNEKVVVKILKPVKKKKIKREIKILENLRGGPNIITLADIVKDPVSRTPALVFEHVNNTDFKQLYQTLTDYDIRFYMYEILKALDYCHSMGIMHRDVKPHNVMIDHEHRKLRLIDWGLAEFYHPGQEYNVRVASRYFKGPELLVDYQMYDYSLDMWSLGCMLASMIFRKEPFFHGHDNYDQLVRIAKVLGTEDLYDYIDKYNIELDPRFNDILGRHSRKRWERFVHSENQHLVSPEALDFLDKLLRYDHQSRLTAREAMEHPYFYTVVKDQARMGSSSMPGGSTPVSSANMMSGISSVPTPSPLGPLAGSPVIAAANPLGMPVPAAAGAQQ
T2 sequence (P67870 whole entry partner): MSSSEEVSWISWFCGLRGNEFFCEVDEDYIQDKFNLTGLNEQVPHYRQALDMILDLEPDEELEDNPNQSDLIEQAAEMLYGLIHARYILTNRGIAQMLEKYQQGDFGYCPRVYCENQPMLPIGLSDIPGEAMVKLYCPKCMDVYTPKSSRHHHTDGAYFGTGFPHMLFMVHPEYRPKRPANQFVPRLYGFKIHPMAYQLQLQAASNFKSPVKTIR
Description: as §1, §2

IκB kinase = target: T3, IκB kinase (Homo sapiens, UniProt O14920+O15111); test: IκB kinase filter test; type: biochemical; settings: kinase purified from HeLa cell extracts; 50 μM ATP; substrate peptide 20 μM
T3 construct: The kinase was purified from HeLa cell extracts; endogenous in cells; host or cells: HeLa cell extracts
T3 sequence (O14920 whole entry): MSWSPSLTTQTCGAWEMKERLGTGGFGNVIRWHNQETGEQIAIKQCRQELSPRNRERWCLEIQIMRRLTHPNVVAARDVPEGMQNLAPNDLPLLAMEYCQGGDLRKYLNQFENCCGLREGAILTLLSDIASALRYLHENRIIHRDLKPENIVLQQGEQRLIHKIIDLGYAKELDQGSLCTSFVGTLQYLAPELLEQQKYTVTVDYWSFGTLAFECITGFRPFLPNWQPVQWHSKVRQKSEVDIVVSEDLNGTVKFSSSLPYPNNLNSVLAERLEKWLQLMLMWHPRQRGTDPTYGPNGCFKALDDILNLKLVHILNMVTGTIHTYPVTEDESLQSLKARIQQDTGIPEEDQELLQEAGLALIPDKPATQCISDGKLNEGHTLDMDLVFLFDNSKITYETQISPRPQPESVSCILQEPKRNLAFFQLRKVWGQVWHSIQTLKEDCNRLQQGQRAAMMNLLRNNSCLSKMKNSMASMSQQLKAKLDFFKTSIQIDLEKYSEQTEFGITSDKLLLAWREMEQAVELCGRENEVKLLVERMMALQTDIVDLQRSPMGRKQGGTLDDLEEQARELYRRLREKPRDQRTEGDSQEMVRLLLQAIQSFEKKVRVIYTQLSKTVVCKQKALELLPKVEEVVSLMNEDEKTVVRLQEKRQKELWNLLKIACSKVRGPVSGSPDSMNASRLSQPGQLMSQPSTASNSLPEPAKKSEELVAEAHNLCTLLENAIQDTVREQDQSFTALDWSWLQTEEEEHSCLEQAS
T3 sequence (O15111 whole entry): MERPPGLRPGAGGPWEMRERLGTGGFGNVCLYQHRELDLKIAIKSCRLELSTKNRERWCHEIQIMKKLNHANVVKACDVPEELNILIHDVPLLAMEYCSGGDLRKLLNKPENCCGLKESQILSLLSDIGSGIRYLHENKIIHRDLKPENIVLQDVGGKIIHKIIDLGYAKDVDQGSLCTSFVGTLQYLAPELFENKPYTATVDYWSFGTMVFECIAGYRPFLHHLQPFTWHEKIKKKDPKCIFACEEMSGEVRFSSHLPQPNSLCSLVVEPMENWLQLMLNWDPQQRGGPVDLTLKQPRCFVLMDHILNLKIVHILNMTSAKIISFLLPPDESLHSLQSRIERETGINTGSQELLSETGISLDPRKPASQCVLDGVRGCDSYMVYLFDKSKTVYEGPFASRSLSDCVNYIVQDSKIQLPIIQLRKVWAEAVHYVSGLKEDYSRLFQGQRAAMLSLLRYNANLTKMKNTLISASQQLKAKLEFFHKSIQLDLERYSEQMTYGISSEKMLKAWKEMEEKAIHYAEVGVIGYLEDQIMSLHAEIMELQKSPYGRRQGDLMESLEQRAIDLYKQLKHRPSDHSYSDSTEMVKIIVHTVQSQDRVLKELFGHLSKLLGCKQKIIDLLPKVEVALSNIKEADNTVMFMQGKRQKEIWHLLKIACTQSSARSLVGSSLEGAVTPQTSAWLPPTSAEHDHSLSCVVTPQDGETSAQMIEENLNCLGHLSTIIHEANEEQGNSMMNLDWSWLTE
T3 sequence (Q9Y6K9 whole entry partner): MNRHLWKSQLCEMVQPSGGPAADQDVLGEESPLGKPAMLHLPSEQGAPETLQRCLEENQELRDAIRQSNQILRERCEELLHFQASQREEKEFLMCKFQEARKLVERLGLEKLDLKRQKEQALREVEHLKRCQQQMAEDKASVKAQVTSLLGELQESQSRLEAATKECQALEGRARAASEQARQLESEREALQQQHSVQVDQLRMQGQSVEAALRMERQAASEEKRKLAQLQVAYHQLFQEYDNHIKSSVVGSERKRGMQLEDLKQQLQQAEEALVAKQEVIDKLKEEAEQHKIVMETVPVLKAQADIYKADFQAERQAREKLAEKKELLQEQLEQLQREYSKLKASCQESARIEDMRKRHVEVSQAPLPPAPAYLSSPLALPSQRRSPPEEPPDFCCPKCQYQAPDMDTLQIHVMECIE

| Structure (SMILES) | melting point | inhibition at 100 µM [1] [%] | PKC % inhibition (protein kinase C (PKC)) [%] | inhibition at 100 µM (casein kinase II (CK II)) [%] | IC50 (IκB kinase) [µM] |
| --- | --- | --- | --- | --- | --- |
| CCN(C[C@H](NC(=O)c1ccc2[nH]c(-c3ccncc3)nc2c1)C(=O)O)c1ccccc1 (as salt: trifluoroacetate) [Example 195, 3-Phenylaminoethyl-2-[(2-pyridin-4-yl-1H-benzimidazole-5-carbonyl)-amino]propionic acid trifluoroacetate] | ~ 258 °C (dec.) |  |  |  |  |
| O=C(N[C@@H](Cc1ccc(F)cc1F)C(=O)O)c1ccc2nc(-c3ccncc3)[nH]c2c1 [Example 5] |  | 0 | 16 | 19 | 25 |
| O=C(N[C@H](Cc1ccc(Cl)cc1)C(=O)O)c1ccc2nc(-c3ccncc3)[nH]c2c1 [Example 6] |  | 0 | 46 | 14 | 72 |
| O=C(N[C@@H](Cc1ccc(F)cc1)C(=O)O)c1ccc2nc(-c3ccncc3)[nH]c2c1 [Example 7] |  | 0 | 15 | 10 | 22 |
| NC(=O)[C@H](Cc1cccc(C(F)(F)F)c1)NC(=O)c1ccc2nc(-c3ccncc3)[nH]c2c1 [Example 8] |  | 0 | 9 | 7 | 4 |
| NC(=O)[C@H](Cc1cccs1)NC(=O)c1ccc2nc(-c3ccncc3)[nH]c2c1 [Example 11] |  | 0 | 16 | 0 | 7 |
| NC(=O)[C@H](Cc1cccnc1)NC(=O)c1ccc2nc(-c3ccncc3)[nH]c2c1 [Example 12] |  | 0 | 16 | 0 | 42 |
| NC(=O)[C@H](Cc1ccc(C(=O)O)cc1)NC(=O)c1ccc2nc(-c3ccncc3)[nH]c2c1 [Example 14] |  | 0 | 0 | 0 | 7 |
| N#Cc1ccc(C[C@H](NC(=O)c2ccc3nc(-c4ccncc4)[nH]c3c2)C(N)=O)cc1 [Example 16] |  | 0 | 11 | 4 | 9 |
| NC(=O)[C@H](Cc1ccc2ccccc2n1)NC(=O)c1ccc2nc(-c3ccncc3)[nH]c2c1 [Example 19] |  | 36 | 63 | 70 | 1 |
| NC(=O)[C@H](Cc1cc(Br)c(O)c(Br)c1)NC(=O)c1ccc2nc(-c3ccncc3)[nH]c2c1 [Example 20] |  | 26 | 31 | 60 | 34 |
| NC(=O)[C@H](Cc1cccs1)NC(=O)c1cccc2nc(-c3ccncc3)[nH]c12 [Example 34] |  |  |  |  | 16 |
| NC(=O)[C@H](CC1CC1)NC(=O)c1cccc2nc(-c3ccncc3)[nH]c12 [Example 36] |  |  |  |  | 36 |
| CSCC[C@H](NC(=O)c1ccc2[nH]c(-c3ccncc3)nc2c1)C(N)=O [Example 107] |  | 0 | 13 | 92 | 1 |
| CC(C)(C)c1ccccc1SC[C@H](NC(=O)c1ccc2[nH]c(-c3ccncc3)nc2c1)C(=O)O [Example 112] |  | 24 | 7 | 17 | 25 |
| Nc1nnc([C@H](CCc2ccccc2)NC(=O)c2ccc3[nH]c(-c4ccncc4)nc3c2)o1 [Example 179, 2-pyridin4-yl-1H-benzimidazole-5-carboxylic acid [1-(5-amino-[1,3,4]oxadiazol-2-yl)-3-phenylpropyl]amide] | 160 °C (dec.) |  |  |  | 0.43 |
| O=C(N[C@@H](CCc1ccccc1)c1nnco1)c1ccc2[nH]c(-c3ccncc3)nc2c1 [Example 180, 2-pyridin-4-yl-1H-benzimidazole-5-carboxylic acid (1-[1,3,4]oxadiazol-2-yl-3-phenylpropyl)amide] | 103 °C (dec.) |  |  |  | 0.62 |
| O=C(N[C@@H](CCc1ccccc1)c1nnc(NS(=O)(=O)c2ccccc2)o1)c1ccc2[nH]c(-c3ccncc3)nc2c1 [Example 191] | 220 °C (dec.) |  |  |  | 0.12 |
| CNC(=O)Nc1nnc([C@H](CCc2ccccc2)NC(=O)c2ccc3[nH]c(-c4ccncc4)nc3c2)o1 [Example 192, 2-pyridin-4-yl-1H-benzimidazole-5-carboxylic acid {1-[5-(3-methylureido)-[1,3,4]oxadiazol-2-yl]-3-phenylpropyl}amide] |  |  |  |  | 0.36 |
